Measurements: patent US20220029188A1, “REDOX FLOW BATTERY” (IP2IPO Innovations Limited, priority 2018, published 2022)
Converted amounts (≈) assume the structure as drawn. Like-named read-outs stand apart in the source and are kept apart here.

Legend:
[1] = Cyclic voltammogram of 1 mM BQ in 1 M H2SO4; assay type: physicochemical; settings: 1 mM in 1 M sulphuric acid, scan rate 50 mV s^−1, glassy carbon electrode
Excerpt: The working electrode was a glassy carbon electrode and the counter electrode was a platinum wire.

[2] = Rotating disk electrode measurements (Levich equation), Example 6; assay type: physicochemical; settings: 1 mM, kinematic viscosity 0.01 cm^2 s^−1
Description: The hydroquinone concentration was 1 mM and the kinematic viscosity of the solution was 0.01 cm^2 s^−1. Using the Levich equation, the diffusion coefficient of benzoquinone was calculated to be 1.5707×10^−7 cm^2 s^−1.

[3] = Standard electrochemical potential from CV experiments; assay type: physicochemical
Description: (§1) Rotating Disk Electrode (RDE) techniques were performed using a mirror polished glassy 5 mm diameter carbon disk electrode (Pine Instruments, AFE6R1 AU) equipped within a rotator (AFMSRCE). Electrochemical tests were performed using a potentiostat (Autolab, model PGSTAT20) and a three-compartment electrochemical glass cell which employed a Pt wire counter electrode. A saturated calomel reference electrode (SCE, E°=0.244 V vs. SHE at 25° C.) was used as the reference electrode, which was ionically connected to the main compartment of the electrochemical glass cell via a Luggin capillary.
(§2) The rotation rates were from 500 rpm to 3000 rpm. CV scan rates were from 10 mV s^−1 to 200 mV s^−1. LSV scan rate was 5 mV s^−1.

[4] = Rotating disk electrode LSV, Levich, Koutecký-Levich and Tafel analysis, 1 mM BQDS in 1 M H2SO4; assay type: physicochemical
Description: as §1, §2

[5] = comparison systems; cited from earlier work
[6] = comparison systems; cited from earlier work; remark: listed apart in the source
[7] = comparison species; cited from earlier work

SMILES	solubility [5] [mM]	electrochemical potential [6]	diffusion coefficient [7]	charge transfer coefficient [7]	further results
O=C1C=C(S(=O)(=O)O)C=C(S(=O)(=O)O)C1=O [BQ]					oxidation peak [1]: 1 V vs MSE; reduction peak [1]: 0.7 V vs MSE; diffusion coefficient [2]: 1.5707×10^−7 cm^2 s^−1
O=S(=O)([O-])c1cc(O)c(O)c(S(=O)(=O)[O-])c1.[Na+].[Na+] [BQDS, 4,5-Dihydroxy-1,3-benzenedisulfonic acid disodium salt monohydrate]					standard electrochemical potential [3]: 0.86 V vs SHE; diffusion coefficient ([4]; determined from LSV, 1 mM in 1 M H2SO4): 5.15×10^−6 cm^2 s^−1; charge transfer coefficient ([4]; from Koutecký-Levich plots and Tafel plot): 0.34
C[N+](C)(C)C[c-]1cccc1.[Cl-].[Fe+2].c1cc[cH-]c1 [Fe-NCL, (ferrocenylmethyl)trimethylammonium chloride]	4000	0.67 V vs SHE	3.74×10^−6 cm^2 s^−1		
Oc1ccc(O)cc1 [hydroquinone]	500 (≈ 55.1 mg/mL)	identical potential as Fe-NCL	5.03×10^−6 cm^2 s^−1	0.51	
CC1(C)CCCC(C)(C)N1[O] [TEMPO]		0.90 V vs SHE	7.00×10^−8 cm^2 s^−1	0.68	
